Measured values published in patent US5968487A (L'Oreal, priority 1996, dated 1999).

Biological target: T1, human melanocyte tyrosinase (Homo sapiens, UniProt P14679)
T1 construct: endogenous in cells; host or cells: cultured human melanocytes (Triton X-100 / ultrasound extract after 3 days' culture with the compound)
T1 sequence (P14679 19-529): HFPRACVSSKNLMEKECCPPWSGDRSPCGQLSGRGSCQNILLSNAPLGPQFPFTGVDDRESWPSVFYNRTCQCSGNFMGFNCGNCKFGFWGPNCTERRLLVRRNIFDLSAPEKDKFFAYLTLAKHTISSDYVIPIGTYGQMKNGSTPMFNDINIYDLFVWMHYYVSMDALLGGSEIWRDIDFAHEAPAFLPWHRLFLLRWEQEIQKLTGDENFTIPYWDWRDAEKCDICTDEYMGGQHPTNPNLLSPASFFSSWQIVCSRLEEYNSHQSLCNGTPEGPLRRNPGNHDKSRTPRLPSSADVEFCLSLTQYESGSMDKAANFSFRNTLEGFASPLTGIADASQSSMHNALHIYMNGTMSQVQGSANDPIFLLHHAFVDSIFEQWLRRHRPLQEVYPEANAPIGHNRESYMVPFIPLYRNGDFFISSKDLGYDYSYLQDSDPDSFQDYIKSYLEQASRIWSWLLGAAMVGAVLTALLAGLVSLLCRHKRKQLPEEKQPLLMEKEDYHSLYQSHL
Experiment: dopa-oxidase activity of human melanocyte tyrosinase after 3-day culture of melanocytes with the compound
Type: cell-based
Conditions: human melanocytes cultured three days with compound; lysate + 5 mM L-dopa, absorbance at 475 nm (dopachrome), 25° C., 60 minutes; read-out: IC50, concentration of active product required to obtain a 50% inhibition of the production of melanin
Method: After three days, the melanocytes were "trypsinized" in a mixture of trypsin/0.05% EDTA/0.02% in a phosphate buffer (50 mM at pH 6.8), washed three times in phosphate buffer containing 1% (w/v) Triton X-100 and subjected to ultrasound. After centrifugation, samples were taken and mixed with 5 mM L-dopa in phosphate buffer. The tyrosinase activity was evaluated by spectrophotometry by measuring the increase in the absorbance at 475 nm due to the formation of dopachrome from 5 mM dopa. The absorbance was read on a microplate reader at 25° C. for 60 minutes.
The activity of the cellular tyrosinase is measured relative to a standard range prepared with commercial tyrosinase.
The value of IC50, i.e., the concentration of active product required to obtain a 50% inhibition of the production of melanin, is determined.

IC50: 200 to 300 µM
SMILES: O=C1NC(C(=O)OCc2cc(=O)c(O)co2)CS1 (stereo not shown) [5-hydroxy-4-oxo-4H-pyran-2-ylmethyl 2-oxothiazolidine-4-carboxylate]
